Earlier results in patent US20190183792A1, “COMPOSITION AND METHOD FOR TREATING HERPESVIRUS IN MAMMALS” (VELOCE BIOPHARMA, LLC, priority 2016, published 2019).

Assays:
[1] = tested on: ocular herpesvirus infection; details: canine models in vivo
[2] = compared among the antivirals
Feline Herpesvirus = details: research by Nasisse
[3] = tested on: Human herpes simplex virus

SMILES	solubility [2]	effectiveness against Feline Herpesvirus (rank order) (Feline Herpesvirus)	further results
Nc1ccn(C[C@@H](CO)OCP(=O)(O)O)c(=O)n1 [Cidofovir]			local ocular toxicity [1]: local ocular toxicity is significant; viral shedding [1]: decrease viral shedding
O=c1[nH]c(=O)n([C@H]2C[C@H](O)[C@@H](CO)O2)cc1I [Idoxuridine]	poorly soluble		
Nc1ncnc2c1ncn2[C@@H]1O[C@H](CO)[C@@H](O)[C@@H]1O [Adenine Arabinoside]		then Adenine Arabinoside	
Nc1nc2c(ncn2COCCO)c(=O)[nH]1 [Acyclovir]		not effective	effectiveness against Human herpes simplex virus [3]: most effective
O=c1[nH]c(=O)n([C@H]2C[C@H](O)[C@@H](CO)O2)cc1C(F)(F)F [Triflurothymidine]	most soluble	most effective	effectiveness [2]: most effective; toxicity [2]: least toxic
